Measured values published in US20040142979A1, “Heteroarylsulfonylmethyl hydroxamic acids and amides and their use as protease inhibitors” (priority 2002, published 2004).

Tests used:
Assay type in all cases: biochemical
Human recombinant MMP-2 = target: T1, Human recombinant MMP-2 (Homo sapiens, UniProt P08253); test: In vitro MMP inhibition analysis (fluorogenic peptide substrate), MMP-2; conditions: human recombinant enzyme; 4 μM substrate (A); apparent Ki without substrate correction
T1 construct: made in house; host or cells: MMP-2-transfected p2AHT2 cells
T1 sequence (P08253 110-660): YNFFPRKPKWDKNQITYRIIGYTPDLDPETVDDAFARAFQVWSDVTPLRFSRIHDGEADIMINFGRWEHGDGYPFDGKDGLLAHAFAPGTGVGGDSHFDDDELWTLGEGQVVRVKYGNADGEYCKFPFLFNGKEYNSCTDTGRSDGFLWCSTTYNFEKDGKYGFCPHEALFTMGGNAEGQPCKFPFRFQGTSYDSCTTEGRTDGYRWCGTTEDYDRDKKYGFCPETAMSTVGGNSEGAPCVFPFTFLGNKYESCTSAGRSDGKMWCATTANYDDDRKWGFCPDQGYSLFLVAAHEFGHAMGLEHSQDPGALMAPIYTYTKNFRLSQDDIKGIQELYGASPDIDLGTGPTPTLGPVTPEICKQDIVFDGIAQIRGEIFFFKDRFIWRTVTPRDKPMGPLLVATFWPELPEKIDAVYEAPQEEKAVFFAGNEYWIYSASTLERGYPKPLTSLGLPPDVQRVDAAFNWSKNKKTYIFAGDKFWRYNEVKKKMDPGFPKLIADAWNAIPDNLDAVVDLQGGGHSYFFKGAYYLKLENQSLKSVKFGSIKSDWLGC
Experimental: (§1) Several compounds and salts were analyzed in an in vitro assay to determine their ability to inhibit the MMP cleavage of peptide substrates. Inhibition constant (Ki) were calculated from the assayed compound-MMP interactions.
(§2) Human recombinant MMP-1, MMP-2, MMP-9, MMP-13, and MMP-14 were used in this assay. All enzymes were prepared in Assignee's laboratories following usual laboratory procedures. Protocols for the preparation and use of these enzymes are available in the scientific literature. See, e.g., Enzyme Nomenclature (Academic Press, San Diego, Calif., 1992) (and the citations therein). See also, Freije et al., J. Biol. Chem., 269(24), 16766-16773 (1994).
The MMP-2 proenzyme was purified by gelatin Sepharose chromatography from MMP-2- transfected p2AHT2 cells provided by Dr. Gregory Goldberg of Washington University (St. Louis, Mo.).
(§3) All MMPs were activated using 4-aminophenylmercuric acetate (“APMA”, Sigma Chemical, St. Louis, Mo.) or trypsin. MMP-9 also was activated using human recombinant MMP-3 (purified in Assignee's laboratory following standard cloning and purification techniques).
(§4) The following fluorogenic, methoxycoumarin-containing polypeptide substrate (A) was used in the MMP inhibition assays:
(§5) MCA-ArgProLeuGlyLeuDpaAlaArgGluArgNH2 (A)
(§6) “MCA” is 7-methoxycoumarin-4-yl acetyl. Substrate (A) was prepared Assignee's laboratory. In the absence of MMP inhibitory activity, the substrate is cleaved at the Gly-Leu peptide bond. This cleavage separates the highly fluorogenic peptide from the 2,4-dinitrophenyl quencher, thus resulting in increase of fluorescent intensity.
(§7) The stock solutions of the assayed compounds and salts were prepared in 1% dimethyl sulfoxide (DMSO). These stock solutions were diluted in Buffer A (100 mM Tris-HCl, 100 mM NaCl, 10 mM CaCl2, 0.05% polyoxyethylene 23 lauryl ether, pH 7.5) to obtain solutions with different compound concentrations, i.e., assay solutions with different concentrations of the assayed MMP inhibitory compound. The experiment controls contained the same amount of Buffer A/DMSO as the assayed sample, but contained none of the tested compound or salt.
(§8) The assays from which the Ki determinations were made were performed as follows. The assayed compound samples were incubated in separate wells of untreated white polystyrene plates (Nunc Nalgene International, Rochester, N.Y.), and analyzed on a Tecan SpectraFlour Plus plate reader. The excitation wavelength was 330 nm, and the emission wavelength -420 nm. All samples (assayed compounds and controls) were incubated in separate plate wells at room temperature for 1 hr in the presence of 4 μM of MMP substrate (A). In the absence of MMP inhibitory activity, substrate (A) was cleaved at the Gly-Leu bond resulting in an increase of relative fluorescence. Inhibition was observed as a reduced rate of this increase in relative fluorescence. […] This protocol is a modification of method by Knight et al., FEBS Lett., 296(3), 263-266 (1992). Apparent inhibitory constants were determined by non-linear regression of reaction velocity as a function of inhibitor and enzyme concentration using Morrison's equation, as described by Kuzmic, P., et al., Anal. Biochem., 286(1):45-50 (2000). Modifications were made in the non-linear regression method to allow a common control reaction rate and effective enzyme concentration to be shared between all dose-response relationships on a given assay plate. Since the substrate concentration was chosen to be at or below the Km, the apparent Ki's from this analysis were reported as Ki's without correction for the influence of substrate.
(§9) The above protocols were used to determine MMP inhibition Ki constants for the compounds in Examples 1, 2, and 4-42 above. All Ki values in Table 3 are given in nM units.

Human recombinant MMP-9 = target: T2, Human recombinant MMP-9 (Homo sapiens, UniProt P14780); test: In vitro MMP inhibition analysis (fluorogenic peptide substrate), MMP-9; conditions: human recombinant enzyme; 4 μM substrate (A); apparent Ki without substrate correction
T2 construct: made in house; host or cells: MMP-9-transfected HT1080 cells (spent media)
Experimental: as §1, §2
The MMP-9 proenzyme was purified by gelatin Sepharose chromatography from spent media of MMP-9-transfected HT1080 cells provided by Dr. Howard Welgus of Washington University (St. Louis, Mo.).
as §3, §4, §5, §6, §7, §8, §9

Human recombinant MMP-14 = target: T3, Human recombinant MMP-14 (Homo sapiens, UniProt P50281); test: In vitro MMP inhibition analysis (fluorogenic peptide substrate), MMP-14; conditions: human recombinant catalytic domain; 4 μM substrate (A); apparent Ki without substrate correction
T3 construct: The catalytic domain enzyme was expressed in E. Coli inclusion bodies; made in house
Experimental: as §1, §2
The MMP-14 full length cDNA was provided by Dr. Gregory Goldberg of Washington University (St. Louis, Mo.). The catalytic domain enzyme was expressed in E. Coli inclusion bodies, solubilized in urea, purified on a preparative […] reverse phase HPLC column, and then refolded in the presence of zinc acetate and purified for use.
as §3, §4, §5, §6, §7, §8, §9

T2 sequence (P14780 107-707 limits assumed): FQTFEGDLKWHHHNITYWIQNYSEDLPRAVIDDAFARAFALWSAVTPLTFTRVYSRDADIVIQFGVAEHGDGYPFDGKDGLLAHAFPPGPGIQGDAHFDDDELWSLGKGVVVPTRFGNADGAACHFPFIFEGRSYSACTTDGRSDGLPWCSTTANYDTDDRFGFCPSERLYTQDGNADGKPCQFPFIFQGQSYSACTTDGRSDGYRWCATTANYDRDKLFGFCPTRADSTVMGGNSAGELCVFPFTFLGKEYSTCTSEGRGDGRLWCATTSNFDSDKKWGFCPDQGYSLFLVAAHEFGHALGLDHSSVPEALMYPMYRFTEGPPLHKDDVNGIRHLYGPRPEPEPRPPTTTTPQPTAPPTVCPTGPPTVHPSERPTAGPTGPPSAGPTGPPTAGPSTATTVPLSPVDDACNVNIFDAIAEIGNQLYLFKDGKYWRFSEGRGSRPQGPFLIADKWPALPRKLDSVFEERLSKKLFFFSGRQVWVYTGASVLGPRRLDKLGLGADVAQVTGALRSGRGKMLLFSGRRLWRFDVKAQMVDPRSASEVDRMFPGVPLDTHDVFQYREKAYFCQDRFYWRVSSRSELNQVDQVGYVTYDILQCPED

Row | Structure (SMILES) | Ki (Human recombinant MMP-2) | Ki (Human recombinant MMP-9) | Ki (Human recombinant MMP-14)
1 | CN(C(=O)c1ccc(-c2ccc(S(=O)(=O)C3(C(=O)NO)CCOCC3)cn2)cc1)c1ccccc1 [Example 78] | 895 nM | 1290 nM | > 10000 nM
2 | CCN(CC)C(=O)c1ccc(-c2ccc(S(=O)(=O)C3(C(=O)NO)CCOCC3)cn2)cc1 [Example 79] | 8200 nM | > 10000 nM | > 10000 nM
3 | CN(C(=O)c1ccc(-c2ccc(S(=O)(=O)C3(C(=O)NO)CCOCC3)cn2)cc1)c1ccc(OC(F)(F)F)cc1 [Example 81] | 2060 nM | 3400 nM | > 10000 nM
4 | CC(C)CN(C)C(=O)c1ccc(-c2ccc(S(=O)(=O)C3(C(=O)NO)CCOCC3)cn2)cc1 [Example 82] | 668 nM | 894 nM | > 10000 nM

These reach a lower Ki (Human recombinant MMP-2). Values come first.

Row | Ki (Human recombinant MMP-2) | Ki (Human recombinant MMP-9) | Ki (Human recombinant MMP-14) | Structure (SMILES)
5 | 46.6 nM | 2040 nM | 3150 nM | O=C(NO)C1(S(=O)(=O)c2ccc3c(c2)sc2nc(-c4ccccc4)cn23)CCOCC1 [Example 83]
6 | 0.819 nM | 4.26 nM | 671 nM | O=C(NO)C1(S(=O)(=O)c2ccc(-c3ccc(OC(F)(F)F)cc3)nc2)CCOCC1 [Example 84]
